Experimental findings from patent publication EP2686338B1, “FUNCTIONALIZED BIOMATERIALS FOR TISSUE REGENERATION” (Nanomed3d S.r.l., priority 2011, dated 2018) are described below.

“Also recorded” adds a separate entry of the source. Residues, ends and D or L forms follow the SMILES beside them.

In one series the test system is mouse NSC. Kind of series: NSC differentiation on exposure to soluble heptapeptides (immunofluorescence). It counts as cell-based. As to conditions: 12 DIV; peptide 0.1 mg/ml in media; Cultrex and Laminin coated wells; vs untreated NSCs, p<0.05. The protocol:
In vitro tests were performed as previously described (8), in order to assess whether the heptapeptides obtained of the present invention influence NSCs differentiation.
Murine cells (at a concentration of 2x10^4 cells/cm^2) were seeded in each well (96 multi-well plate) previously coated with Cultrex-BME® substrate (R&D systems) (1:100 dilution in basal medium, overnight incubation) or with Laminin (Roche) (1:5 dilution in PBS 1x, pH 7.4, overnight incubation).
Initially, cells were cultured with basal medium supplemented with βFGF (10 ng/ml), added to enhance neuronal progeny differentiation. At 3 days in vitro (DIV), βFGF medium was replaced with Leukemia Inhibitory Factor (LIF, Chemicon) (20 ng/ml) and Brain Derived Neurotrophic Factor (BDNF, Peprotech) (20 ng/ml). Fresh medium was added every three days. The chosen peptides were dissolved in all cell culture media (but not in the coatings) at a concentration of 0.1 mg/ml.
Immunofluorescence tests were performed for assaying the phenotypes of the differentiated murine NSC progenies. The following antibodies were used: rabbit polyclonal against GFAP (1:500, DakoCytomation) for astrocytes and mouse monoclonal against βIII-Tubulin (1:500, Covance) for neurons. Secondary Abs were Goat anti Mouse Alexa 488 (1:1000, Molecular Probes), Goat anti Mouse Cy3 (1:1000, Jackson Immunoresearch), Cell nuclei were counterstained with DAPI (Molecular Probes). Quantitative analyses were performed by counting 100-300 cells for each of 9 randomly chosen fields over a total of 3 independent experiments.
Values, reported as means ± standard error of the mean (Figure 1A).

The subject of series [1] is human NSCs. Kind of series: Immunofluorescence of differentiated NSC progeny on scaffolds, human NSCs. It counts as cell-based. As to conditions: 1% scaffold; compared to Cultrex positive control. The protocol:
(§1) In vitro tests were performed as previously described (8), in order to assess whether the biomaterials (assembled hydrogels) obtained with the SAPs of the present invention influenced NSCs adhesion, survival and/or differentiation. SAPeptides (30 µl for each well at a concentration of 10 mg/ml) were assembled into 96 multiwells two hours before cell. Cells (at a concentration of 2x10^4 cells/cm^2) were seeded on the top-surface of each assembled scaffold. Initially, cells were cultured with basal medium supplemented with βFGF (10 ng/ml), added to enhance neuronal progeny differentiation. At 3 days in vitro (DIV), βFGF medium was replaced with Leukemia Inhibitory Factor (LIF, Chemicon) (20 ng/ml) and Brain Derived Neurotrophic Factor (BDNF, Peprotech) (20 ng/ml). Fresh medium was added every three days. For both viability and differentiation assays positive and negative controls consisted of Cultrex-BME® substrate (R&D systems) (1:100 dilution in basal medium) and untreated bottom well surfaces respectively. Cell viability was quantified via CellTiter 96® Aqueous Proliferation Assay (Promega) at 7 DIV as recommended in the Promega protocol. After calibrating the linear response between the cell number and absorbance values, proliferated cell populations were quantified (n=5) by using a Vmax microplate reader (Molecular Devices) at 490nm wavelength. Values, reported as means ± standard error of the mean, were blanked to their respective controls consisting of same substrates and cell culture media without cells.
Immunofluorescence tests were performed for assaying the phenotypes of the differentiated human and murine NSC progenies. In the case of KLP and Ac-KLP just murine NSC have been used. Ac-KLP and KLP scaffolds were prepared at different concentrations in order to display three different stiffness values (viz. 100, 500 and 1000 Pa). This was done to assess the influence of scaffold concentration (and consequently its stiffness) over NSC differentiation. All the other peptides were tested at 1% v/w concentration instead. The following antibodies were used: rabbit polyclonal against GFAP (1:500, DakoCytomation) for astrocytes, mouse monoclonal against βIII-Tubulin (1:500, Covance) for neurons, mouse monoclonal against GalC (1:200, Chemicon) and O4 (1:200, Chemicon) for oligodendrocyes. Secondary Abs were Goat anti Mouse Alexa 488 (1:1000, Molecular Probes), Goat anti Mouse Cy3 (1:1000, Jackson Immunoresearch), Goat anti Rabbit Cy3 (1:1000, Jackson Immunoresearch). […] Quantitative analyses were performed by counting 100-300 cells for each of 9 randomly chosen fields over a total of 3 independent experiments. Phase contrast and fluorescence images of the adhering cells were acquired via Zeiss microscopes Axioplan 2 and ApoTome System at one week after seeding.

The subject of series [2] is human NSCs. As to the kind of experiment: Imaging and cell proliferation (MTS) assay on assembled scaffolds, human NSCs. It counts as cell-based. The protocol: as §1
In series [3] the test system is murine NSCs. As to the kind of experiment: Immunofluorescence of differentiated NSC progeny on scaffolds, murine NSCs. The class given is cell-based. As to conditions: 1% scaffold; compared to Cultrex positive control. The procedure: as §1
Immunofluorescence tests were performed for assaying the phenotypes of the differentiated human and murine NSC progenies. In the case of KLP and Ac-KLP just murine NSC have been used. Ac-KLP and KLP scaffolds were prepared at different concentrations in order to display three different stiffness values (viz. 100, 500 and 1000 Pa). This was done to assess the influence of scaffold concentration (and consequently its stiffness) over NSC differentiation. All the other peptides were tested at 1% v/w concentration instead. The following antibodies were used: rabbit polyclonal against GFAP (1:500, DakoCytomation) for astrocytes, mouse monoclonal against βIII-Tubulin (1:500, Covance) for neurons, mouse monoclonal against GalC (1:200, Chemicon) and O4 (1:200, Chemicon) for oligodendrocyes. Secondary Abs were Goat anti Mouse Alexa 488 (1:1000, Molecular Probes), Goat anti Mouse Cy3 (1:1000, Jackson Immunoresearch), Goat anti Rabbit Cy3 (1:1000, Jackson Immunoresearch). Cell nuclei were counterstained with DAPI (Molecular Probes). Quantitative analyses were performed by counting 100-300 cells for each of 9 randomly chosen fields over a total of 3 independent experiments. Phase contrast and fluorescence images of the adhering cells were acquired via Zeiss microscopes Axioplan 2 and ApoTome System at one week after seeding.

Series [4] has as its system murine NSCs. As to the kind of experiment: Imaging and cell proliferation (MTS) assay on assembled scaffolds, murine NSCs. It counts as cell-based. The protocol: as §1
Series [5] in a line: Rheology (frequency, time and strain sweeps). The class given is physicochemical. The protocol: Rheological properties of the self-assembling peptides of the invention were determined using a controlled stress TA Instruments AR-2000ex rheometer (TA Instruments). A cone-and-plate geometry (acrylic cone diameter, 20 mm; angle, 1°; truncation gap 34 µm) was used. Preliminary strain sweeps were performed for each sample to define the linear viscoelastic region, thus ensuring that moduli were independent of strain. Time sweeps, after addition of PBS (1x) were recorded at 25 C (angular frequency ω=1 Hz) and continued till G' plateaued. Frequency sweeps, both for peptide water solutions and for self-assembled scaffolds, were performed at 25 C with the instrument in oscillatory mode at controlled strain of 1 %. Final strain sweeps was performed at 1Hz oscillatory frequency and at 25 C: onset point of failure was calculated by linear interpolation and subsequent determination of the intersection of the G' modes within the linear region and at material failure respectively.

In the case of `CC(C)C[C@H](NC(=O)[C@@H]1CCCN1C(=O)[C@H](C)NC(=O)[C@H](CCCNC(=N)N)NC(=O)[C@@H](NC(=O)[C@H](CCC(=O)O)NC(=O)CN)[C@@H](C)O)C(N)=O` [#GET, NH4-GETRAPL-CONH2] (H-GETRAPL-NH2), the “percentage of differentiated neurons (Beta III Tubulin staining)” value (from here on “percentage of differentiated neurons”) in the series with mouse NSC was “significant increase”.

In the case of `CC[C@H](C)[C@H](NC(=O)[C@H](C)NC(=O)[C@@H](N)Cc1c[nH]cn1)C(=O)N[C@@H](Cc1ccc(O)cc1)C(=O)N1CCC[C@H]1C(=O)N[C@@H](CCCNC(=N)N)C(=O)N[C@@H](Cc1c[nH]cn1)C(N)=O` [#HAI, NH2-HAIYPRH-CONH2], in the series on mouse NSC, the “percentage of differentiated neurons” value was “significant increase”.

Consider `CC(C)C[C@H](NC(=O)[C@@H](N)CCCCN)C(=O)N1CCC[C@H]1C(=O)NCC(=O)N[C@@H](Cc1c[nH]c2ccccc12)C(=O)N[C@@H](CO)C(=O)NCC(N)=O` [#KLP, NH2-KLPGWSG-CONH2] (H-KLPGWSG-NH2), for which, in the series with mouse NSC, the “percentage of differentiated neurons” value is “significant increase; also recorded: Highest increase of the neuronal phenotype”.

For the compound `CC(C)C[C@H](NC(=O)CNC(=O)CNC(=O)CNC(=O)[C@@H]1CCCN1C(=O)[C@@H]1CCCN1C(=O)[C@@H](NC(=O)[C@H](CCCNC(=N)N)NC(=O)[C@H](CCC(N)=O)NC(=O)[C@H](C)NC(=O)[C@@H](N)Cc1ccccc1)C(C)C)C(=O)N[C@@H](CC(=O)O)C(=O)N[C@@H](CC(C)C)C(=O)N[C@@H](CCCCN)C(=O)N[C@@H](CC(C)C)C(=O)N[C@@H](CC(=O)O)C(=O)N[C@@H](CC(C)C)C(=O)N[C@@H](CCCCN)C(=O)N[C@@H](CC(C)C)C(=O)N[C@@H](CC(=O)O)C(=O)N[C@@H](CC(C)C)C(=O)N[C@@H](CCCCN)C(N)=O` [FAQ, NH2-FAQRVPP-GGG-LDLKLDLKLDLK-CONH2] (H-FAQRVPPGGGLDLKLDLKLDLK-NH2), the number of neurons result in the series on human NSCs [1] and in the series on murine NSCs [3] was “significantly higher” each time. The number of oligodendrocytes entry in the series with human NSCs [1] and in the series on murine NSCs [3] was “significantly higher” each time. Further, the “cell morphology, adhesion and spreading” value is “spread and branched cells” in the series on human NSCs [2] (7 DIV on assembled hydrogels); “spread and branched cells” in the series with murine NSCs [4] (7 DIV on assembled hydrogels). Also, the “cell viability (MTS, cell population)” value with human NSCs [2] (7 DIV, scaffolds 10 mg/ml, vs control, P<0.03, n=5) is recorded as “significantly fostered cell viability; also recorded: cell population was bigger”; in the series with murine NSCs [4] (7 DIV, scaffolds 10 mg/ml, vs control, P<0.005, n=5), “significantly fostered cell viability; also recorded: cell population was bigger”. For the same compound, the “G' pre-assembling” value in series [5] (average storage modulus of SAPeptide solution, 1% w/v, 1-100 Hz, before PBS) turned out to be 6.66 Pa. Further, the “G' post-assembling” value in series [5] (average storage modulus of jellified scaffold, 1% w/v, 1-100 Hz, after PBS) is 142.7 Pa. In series [5] (strain percentage at rupture, strain sweep at 1 Hz, 25 C), the “Onset point (% strain)” value amounted to 25.43%.
